Experimental data reported in the NIST ThermoML archive (doi:10.1021/je300603d).

Tests used:
[1] = mn = molality of the nth substance listed, in mol/kg; conditions: 101 kPa, Liquid, m2 = 0; for electrical conductivity: Alternating current cell with electrodes; for viscosity: Falling or rolling sphere viscometry; for mass density: Vibrating tube method
[2] = 101 kPa, Liquid; for electrical conductivity: Alternating current cell with electrodes; for viscosity: Falling or rolling sphere viscometry; for mass density: Vibrating tube method

CCCCn1cc[n+](C)c1.F[B-](F)(F)F [1-butyl-3-methylimidazolium tetrafluoroborate] + F[B-](F)(F)F.[Na+]
[1]
Conditions	electrical conductivity [S/m]	mass density [kg/m3]	viscosity [mPa·s]
238.15 K	0.00095	–	–
258.15 K	0.0227	–	–
278.15 K	0.113	1216.3	384.5
288.15 K	–	1209	197.7
298.15 K	0.353	1201.8	112.3
308.15 K	–	1194.6	68.89
318.15 K	0.826	1187.6	45.36
328.15 K	–	1180.6	31.49
338.15 K	1.548	1173.6	21.99
348.15 K	–	1166.7	16.54
358.15 K	2.53	1159.9	12.84
378.15 K	3.74	–	–
398.15 K	5.13	–	–
418.15 K	6.68	–	–
438.15 K	8.36	–	–
458.15 K	10.13	–	–

CCCCn1cc[n+](C)c1.F[B-](F)(F)F [1-butyl-3-methylimidazolium tetrafluoroborate]
[2]
Conditions	electrical conductivity [S/m]	mass density [kg/m3]	viscosity [mPa·s]
238.15 K	0.00095	–	–
258.15 K	0.0227	–	–
278.15 K	0.113	1216.3	384.5
288.15 K	–	1209	197.7
298.15 K	0.353	1201.8	112.3
308.15 K	–	1194.6	68.89
318.15 K	0.826	1187.6	45.36
328.15 K	–	1180.6	31.49
338.15 K	1.548	1173.6	21.99
348.15 K	–	1166.7	16.54
358.15 K	2.53	1159.9	12.84
378.15 K	3.74	–	–
398.15 K	5.13	–	–
418.15 K	6.68	–	–
438.15 K	8.36	–	–
458.15 K	10.13	–	–
